From article PMC12408352, “Complete biosynthesis of salicylic acid from phenylalanine in plants” (Nature, 2025) come the findings set out here.

Holding throughout (assay type): biochemical
Experiment [1] has as its target T1, PhCHD, MBP-PhCHD (Petunia x hybrida, UniProt J9YIZ4).
T1 construct: gene CHD; synthesized gene in pMAL-c5X, MBP fusion, E. coli BL21 (DE3), amylose resin
T1 sequence (J9YIZ4 1-724): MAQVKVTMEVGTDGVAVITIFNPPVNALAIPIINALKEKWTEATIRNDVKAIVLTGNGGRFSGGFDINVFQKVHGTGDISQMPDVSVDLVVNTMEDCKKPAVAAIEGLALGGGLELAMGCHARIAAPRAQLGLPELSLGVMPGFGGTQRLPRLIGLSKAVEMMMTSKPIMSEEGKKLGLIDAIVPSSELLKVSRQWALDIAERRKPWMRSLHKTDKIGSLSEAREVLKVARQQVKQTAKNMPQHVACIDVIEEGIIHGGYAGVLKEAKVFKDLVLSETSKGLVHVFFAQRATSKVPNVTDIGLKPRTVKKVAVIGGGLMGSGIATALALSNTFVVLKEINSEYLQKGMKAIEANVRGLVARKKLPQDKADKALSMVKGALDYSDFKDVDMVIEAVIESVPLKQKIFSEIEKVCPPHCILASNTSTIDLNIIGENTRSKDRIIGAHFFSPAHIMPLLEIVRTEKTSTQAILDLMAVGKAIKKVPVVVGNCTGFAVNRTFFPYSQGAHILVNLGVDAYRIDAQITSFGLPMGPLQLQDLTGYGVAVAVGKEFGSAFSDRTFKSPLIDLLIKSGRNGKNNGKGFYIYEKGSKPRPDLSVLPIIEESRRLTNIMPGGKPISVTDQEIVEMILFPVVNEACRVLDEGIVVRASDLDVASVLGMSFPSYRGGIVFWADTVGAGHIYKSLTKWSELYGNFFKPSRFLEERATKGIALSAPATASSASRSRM
Description: product detection by LC-UV-MS. The note with it: positive control; AIM1 assay conditions, 0.5 mM CA-CoA, 1 mM NAD+, Tris-HCl pH 7.5, 30 °C.

Experiment [2] addresses T2, AIM1 (OsCHD), MBP-AIM1 (Oryza sativa, UniProt Q8W1L6).
T2 construct: gene MFP; CDS from rice cDNA in pMAL-c2X, MBP fusion, E. coli BL21 (DE3), amylose resin
T2 sequence (Q8W1L6 1-726): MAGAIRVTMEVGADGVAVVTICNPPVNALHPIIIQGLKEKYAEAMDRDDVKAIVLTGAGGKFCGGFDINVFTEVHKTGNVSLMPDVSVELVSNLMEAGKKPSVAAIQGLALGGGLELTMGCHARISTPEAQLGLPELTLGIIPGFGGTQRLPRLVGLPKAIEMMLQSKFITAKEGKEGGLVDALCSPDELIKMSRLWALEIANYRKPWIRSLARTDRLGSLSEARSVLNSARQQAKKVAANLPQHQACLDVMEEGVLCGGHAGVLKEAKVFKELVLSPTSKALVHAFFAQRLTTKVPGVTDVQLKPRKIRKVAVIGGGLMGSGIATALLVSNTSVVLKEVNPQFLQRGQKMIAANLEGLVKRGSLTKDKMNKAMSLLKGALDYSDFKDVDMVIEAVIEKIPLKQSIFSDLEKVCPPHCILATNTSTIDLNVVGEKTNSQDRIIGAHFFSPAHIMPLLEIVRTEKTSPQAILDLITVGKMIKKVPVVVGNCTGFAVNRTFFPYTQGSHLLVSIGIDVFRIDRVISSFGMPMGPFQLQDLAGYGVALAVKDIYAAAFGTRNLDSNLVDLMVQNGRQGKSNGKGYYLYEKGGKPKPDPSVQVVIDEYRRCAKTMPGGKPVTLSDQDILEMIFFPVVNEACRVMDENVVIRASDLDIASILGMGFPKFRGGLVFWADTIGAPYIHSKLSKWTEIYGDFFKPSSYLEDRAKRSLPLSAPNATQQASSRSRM
Description: product detection by LC-UV-MS. The note with it: 0.5 mM CA-CoA, 1 mM NAD+, 100 mM Tris-HCl pH 7.5, MgCl2, KCl, pyruvate / lactate dehydrogenase, 30 °C.

Experiment [3] deals with T3, OSD3, Flag-OSD3 (Oryza sativa, UniProt Q69P73).
T3 construct: gene Os09g0441400; Flag fusion in pESC-URA, microsomes of yeast strain WAT11
T3 sequence (Q69P73 1-514): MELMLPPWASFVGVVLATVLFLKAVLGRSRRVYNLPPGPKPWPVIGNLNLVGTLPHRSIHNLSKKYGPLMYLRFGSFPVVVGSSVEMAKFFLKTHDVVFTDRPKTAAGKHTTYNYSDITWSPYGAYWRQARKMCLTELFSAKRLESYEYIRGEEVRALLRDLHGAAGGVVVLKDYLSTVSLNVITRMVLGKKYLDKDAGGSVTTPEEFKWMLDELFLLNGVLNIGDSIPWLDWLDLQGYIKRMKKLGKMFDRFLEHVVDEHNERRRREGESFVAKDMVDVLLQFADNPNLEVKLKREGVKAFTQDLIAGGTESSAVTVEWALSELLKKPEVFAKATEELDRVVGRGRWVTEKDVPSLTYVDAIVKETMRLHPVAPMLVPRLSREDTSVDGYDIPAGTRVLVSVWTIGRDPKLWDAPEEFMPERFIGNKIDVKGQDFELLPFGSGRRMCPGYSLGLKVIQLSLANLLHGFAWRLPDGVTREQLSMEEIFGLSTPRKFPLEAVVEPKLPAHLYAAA
Description: product detection by LC-UV-MS, yeast microsomes. To be noted: 50 µM BB, 5 mM NADPH, 80 mM sodium phosphate pH 7.0, 5 mM DTT, 30 °C.

Molecules are shown by their SMILES.

With `CC(C)(COP(=O)(O)OP(=O)(O)OC[C@H]1O[C@@H](n2cnc3c(N)ncnc32)[C@H](O)[C@@H]1OP(=O)(O)O)[C@@H](O)C(=O)NCCC(=O)NCCSC(=O)CC(=O)c1ccccc1` [benzoylacetyl-CoA], the “product detection by LC-UV-MS” value in experiment [1] is “used it to produce a BAc-CoA standard”; in experiment [2], “confirming the product of AIM1 as BAc-CoA”. With `O=C(OCc1ccccc1)c1ccccc1` [benzyl benzoate], in experiment [3], the “product detection by LC-UV-MS, yeast microsomes” value is given as “OSD3 acts as a benzyl benzoate 2-hydroxylase (BB2H) to catalyse the hydroxylation of BB”.

Take `O=C(OCc1ccccc1)c1ccccc1O` [benzyl salicylate]: the “product detection by LC-UV-MS, yeast microsomes” value in experiment [3] is “to catalyse the hydroxylation of BB, yielding BS”. On to `CC(C)(COP(=O)(O)OP(=O)(O)OC[C@H]1O[C@@H](n2cnc3c(N)ncnc32)[C@H](O)[C@@H]1OP(=O)(O)O)[C@@H](O)C(=O)NCCC(=O)NCCSC(=O)/C=C/c1ccccc1` [cinnamoyl-CoA], for which the “product detection by LC-UV-MS” value is on record as “The MBP–PhCHD enzyme was used as a positive control” in experiment [1] and “AIM1 functions as a CA-CoA hydratase-dehydrogenase for converting CA-CoA to BAc-CoA” in experiment [2].
